According to ChEMBL document CHEMBL6177980 (J Med Chem, 2025):
≈ marks a conversion by molar mass, not a printed value. Calls of active or inactive are those of the source. The rule behind the calls is not given here.

Experiments:
[1] = Stability of compound at pH 6.8 assessed as change in purity at 1 mg/ml incubated for 12 hrs by HPLC analysis; format: physicochemical; details: buffer, pH 6.8, 12 h
[2] = Stability of compound at pH 4.0 assessed as change in purity at 1 mg/ml incubated for 24 hrs by HPLC analysis; format: physicochemical; details: buffer, pH 4, 24 h
[3] = Stability of compound at pH 6.8 assessed as change in purity at 1 mg/ml incubated for 24 hrs by HPLC analysis; format: physicochemical; details: buffer, pH 6.8, 24 h
[4] = Stability of compound at pH 4.0 assessed as change in purity at 1 mg/ml incubated for 12 hrs by HPLC analysis; format: physicochemical; details: buffer, pH 4, 12 h
[5] = Stability of compound at pH 1.5 assessed as change in purity at 1 mg/ml incubated for 12 hrs by HPLC analysis; format: physicochemical; details: buffer, pH 1.5, 12 h
[6] = AUC (0 to t) in fasted Sprague-Dawley rat at 19 mg/kg, po by LC-MS/MS analysis; format: ADME, organism-based; details: in vivo
[7] = Stability of compound at pH 4.0 assessed as change in purity at 1 mg/ml incubated for 4 hrs by HPLC analysis; format: physicochemical; details: buffer, pH 4, 4 h
[8] = Cmax in fasted Sprague-Dawley rat at 19 mg/kg, po by LC-MS/MS analysis; format: ADME, organism-based; details: in vivo
[9] = Stability of compound at pH 6.8 assessed as change in purity at 1 mg/ml incubated for 4 hrs by HPLC analysis; format: physicochemical; details: buffer, pH 6.8, 4 h
[10] = Stability of compound at pH 1.5 assessed as change in purity at 1 mg/ml incubated for 24 hrs by HPLC analysis; format: physicochemical; details: buffer, pH 1.5, 24 h
[11] = Stability of compound at pH 1.5 assessed as change in purity at 1 mg/ml incubated for 4 hrs by HPLC analysis; format: physicochemical; details: buffer, pH 1.5, 4 h
[12] = Cmax in fasted Sprague-Dawley rat at 24 mg/kg, po by LC-MS/MS analysis; format: ADME, organism-based; details: in vivo
[13] = AUC (0 to t) in fasted Sprague-Dawley rat at 24 mg/kg, po by LC-MS/MS analysis; format: ADME, organism-based; details: in vivo
[14] = Oral bioavailability in fasted Cynomolgus monkey administered orally by LC-MS/MS analysis; format: ADME, organism-based, Macaca fascicularis; details: in vivo
[15] = AUC (0 to t) in fasted Sprague-Dawley rat at 20 mg/kg, po by LC-MS/MS analysis; format: ADME, organism-based; details: in vivo
[16] = Cmax in fasted Sprague-Dawley rat at 20 mg/kg, po by LC-MS/MS analysis; format: ADME, organism-based; details: in vivo
[17] = Aqueous solubility of compound; format: physicochemical; details: aqueous medium
[18] = Half life in fasted Cynomolgus monkey administered orally by LC-MS/MS analysis; format: ADME, Macaca fascicularis; details: in vivo, route po
[19] = AUC (0 to t) in fasted Sprague-Dawley rat at 16.5 mg/kg, po by LC-MS/MS analysis; format: ADME, organism-based; details: in vivo
[20] = Cmax in fasted Sprague-Dawley rat at 16.5 mg/kg, po by LC-MS/MS analysis; format: ADME, organism-based; details: in vivo
[21] = AUC (0 to t) in fasted Sprague-Dawley rat at 21 mg/kg, po by LC-MS/MS analysis; format: ADME, organism-based; details: in vivo
[22] = Cmax in fasted Sprague-Dawley rat at 21 mg/kg, po by LC-MS/MS analysis; format: ADME, organism-based; details: in vivo
[23] = Cmax in fasted Sprague-Dawley rat at 27 mg/kg, po by LC-MS/MS analysis; format: ADME, organism-based; details: in vivo
[24] = AUC (0 to t) in fasted Sprague-Dawley rat at 27 mg/kg, po by LC-MS/MS analysis; format: ADME, organism-based; details: in vivo
[25] = AUC (0 to t) in fasted Sprague-Dawley rat at 25 mg/kg, po by LC-MS/MS analysis; format: ADME, organism-based; details: in vivo
[26] = Cmax in fasted Sprague-Dawley rat at 25 mg/kg, po by LC-MS/MS analysis; format: ADME, organism-based; details: in vivo
[27] = system: Mammarenavirus choriomeningitidis; assay: In vivo antiviral activity against LCMV infected in C57BL/6-Prf1tm1Sdz/J mouse assessed as improvement in body weight loss at 300 mg/kg, po qd treated for 7 days; format: functional, organism-based; details: time 7.0 day
[28] = system: Mammarenavirus choriomeningitidis; assay: In vivo antiviral activity against LCMV infected in C57BL/6-Prf1tm1Sdz/J mouse assessed as improvement in platelet count at 300 mg/kg, po qd treated for 7 days; format: functional, organism-based; details: time 7.0 day
[29] = system: Mammarenavirus choriomeningitidis; assay: In vivo antiviral activity against LCMV infected in C57BL/6-Prf1tm1Sdz/J mouse assessed as animal survival at 300 mg/kg, po qd treated for 7 days; format: functional, organism-based; details: time 7.0 day
[30] = system: Mammarenavirus choriomeningitidis; assay: In vivo antiviral activity against LCMV infected in C57BL/6-Prf1tm1Sdz/J mouse assessed as improvement in lymphocytes percentage at 300 mg/kg, po qd treated for 7 days; format: functional, organism-based; details: time 7.0 day

| SMILES | Activity [1] [%] | Activity [2] [%] | Activity [3] [%] | Activity [4] [%] | Activity [5] [%] | Activity [7] [%] | Activity [9] [%] | Activity [10] [%] | Activity [11] [%] | bioavailability [14] [%] | further results |
| --- | --- | --- | --- | --- | --- | --- | --- | --- | --- | --- | --- |
| CC(C)C(=O)OC[C@@]1(F)O[C@@H](n2ccc(=O)n(COC(=O)c3cccnc3)c2=O)[C@@H]2OC(=O)O[C@@H]21 | -76 | -10.5 | -88.3 | -5.4 | -5.5 | -1.9 | -45 | -9.5 | -2.1 |  | AUC(0-t) [6]: 9450 ng·h/mL; Cmax [8]: 1200 ng/mL |
| CC(C)C(=O)OC[C@@]1(F)O[C@@H](n2ccc(=O)n(COC(=O)[C@@H]3CCCN3)c2=O)[C@H](OC(=O)C(C)C)[C@@H]1OC(=O)C(C)C.Cl | -30.5 | -84.8 | -30.6 | -62.4 | -4.1 | -35.2 | -27.6 | -7.9 | -1.3 |  | Cmax [12]: 1370 ng/mL; AUC(0-t) [13]: 7590 ng·h/mL |
| CC(=O)OC[C@@]1(F)O[C@@H](n2ccc(=O)n(COC(=O)c3cccnc3)c2=O)[C@H](OC(C)=O)[C@@H]1OC(C)=O | -4.3 | -0.1 | -8.6 | -0.1 | -8.5 | 0 | -1.6 | -15.7 | -3 | 100 | AUC(0-t) [15]: 15700 ng·h/mL; Cmax [16]: 3120 ng/mL; solubility [17]: 700 µg/mL (≈ 1340 µM) |
| CC(C)C(=O)OCn1c(=O)ccn([C@@H]2O[C@](F)(COC(=O)C(C)C)[C@@H](O)[C@H]2O)c1=O | -2.4 | -3 | -4.1 | -1.8 | -6 | -0.9 | -1 | -11.2 | -2 | 66.2 | half-life [18]: 6.84 h; AUC(0-t) [19]: 20100 ng·h/mL; Cmax [20]: 3140 ng/mL |
| CC(=O)O[C@H]1[C@H](n2ccc(=O)n(COC(=O)c3cccnc3)c2=O)O[C@](F)(COC(=O)C(C)C)[C@H]1OC(C)=O | -16.4 | -0.2 | -31 | -0.1 | -5.6 | -0.1 | -6.7 | -10.4 | -2 | 86.4 | AUC(0-t) [21]: 13500 ng·h/mL; solubility [17]: 410 µg/mL (≈ 743 µM); Cmax [22]: 2190 ng/mL |
| O=C(OCn1c(=O)ccn([C@@H]2O[C@](F)(COC(=O)c3cccnc3)[C@@H](OC(=O)c3cccnc3)[C@H]2OC(=O)c2cccnc2)c1=O)c1cccnc1 |  |  |  |  |  |  |  |  |  |  | Cmax [23]: 708 ng/mL; AUC(0-t) [24]: 9080 ng·h/mL |
| CC(C)C(=O)OC[C@@]1(F)O[C@@H](n2ccc(=O)n(COC(=O)[C@@H]3CCCN3C)c2=O)[C@H](OC(=O)C(C)C)[C@@H]1OC(=O)C(C)C.Cl | -95 | -52.7 | -95 | -29.8 | -3.6 | -10.9 | -62.9 | -7.6 | -1.5 | 91 | AUC(0-t) [25]: 14200 ng·h/mL; Cmax [26]: 2150 ng/mL |
| NC(=O)c1nc(F)cnc1O |  |  |  |  |  |  |  |  |  |  | Activity [27]: inactive; Activity [28]: inactive; Activity [29]: inactive; Activity [30]: inactive |
